Measurements: paper PMC6466937, “Evaluation of In Vitro Antioxidant and Antidiabetic Activities of Aristolochia longa Extracts” (Evidence-based Complementary and Alternative Medicine : eCAM, 2019)

Biological target: T1, β-Galactosidase from Aspergillus oryzae (Aspergillus oryzae, UniProt Q2UCU3)
T1 construct: gene lacA; commercial secreted enzyme (Sigma-Aldrich), no catalogue number
T1 sequence (Q2UCU3 19-1005): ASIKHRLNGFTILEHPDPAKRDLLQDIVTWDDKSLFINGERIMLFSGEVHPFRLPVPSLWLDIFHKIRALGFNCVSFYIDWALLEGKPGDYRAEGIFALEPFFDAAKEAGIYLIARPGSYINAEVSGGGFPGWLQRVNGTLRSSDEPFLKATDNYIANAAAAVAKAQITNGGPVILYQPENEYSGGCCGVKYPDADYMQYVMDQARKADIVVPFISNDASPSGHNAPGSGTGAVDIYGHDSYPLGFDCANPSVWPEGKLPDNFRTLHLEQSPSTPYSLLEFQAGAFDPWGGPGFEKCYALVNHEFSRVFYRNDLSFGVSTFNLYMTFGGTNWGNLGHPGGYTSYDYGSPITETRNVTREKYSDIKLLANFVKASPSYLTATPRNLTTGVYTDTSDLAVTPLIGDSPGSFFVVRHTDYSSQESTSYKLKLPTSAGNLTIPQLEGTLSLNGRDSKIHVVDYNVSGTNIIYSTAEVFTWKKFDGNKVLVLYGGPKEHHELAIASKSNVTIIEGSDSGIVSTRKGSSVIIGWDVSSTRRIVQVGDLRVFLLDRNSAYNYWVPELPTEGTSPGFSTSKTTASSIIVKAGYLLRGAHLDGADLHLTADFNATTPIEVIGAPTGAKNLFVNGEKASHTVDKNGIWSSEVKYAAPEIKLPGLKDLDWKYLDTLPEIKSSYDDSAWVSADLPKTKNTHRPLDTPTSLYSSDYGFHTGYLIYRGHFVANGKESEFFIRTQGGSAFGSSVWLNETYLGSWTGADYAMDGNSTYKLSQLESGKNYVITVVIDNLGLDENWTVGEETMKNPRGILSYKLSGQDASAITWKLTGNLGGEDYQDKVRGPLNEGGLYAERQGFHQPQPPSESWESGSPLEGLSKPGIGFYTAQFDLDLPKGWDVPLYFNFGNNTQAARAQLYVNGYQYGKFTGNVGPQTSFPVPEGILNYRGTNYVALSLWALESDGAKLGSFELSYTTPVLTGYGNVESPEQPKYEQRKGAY
Assay: 2-nitrophenyl beta-D-galactopyranoside hydrolysis, absorbance […] nm
Assay type: biochemical
Details: read-out: β-Galactosidase inhibition / IC50 (mg/mL) (converted)

O=c1c(O)c(-c2ccc(O)c(O)c2)oc2cc(O)cc(O)c12 [Quercetin]
IC50: 817 µM
